In patent publication EP4353088A1, “COMPOSITIONS OR COMBINED PREPARATIONS OF ESSENTIAL OILS AND L-CARNITINE” (Servicio Andaluz de Salud, priority 2022, dated 2024):

Columns and labels:
cytokines and chemokines = test: Cytokines and chemokines in plasma (ProcartaPlex 26-Plex); assay type: in vivo, mice; conditions: L-carnitine (0.02%, w/v) in drinking water for 40 days
Procedure: (§1) A humanized gnotobiotic mouse model was developed through the fecal microbiota transplantation of human feces into germ-free mice. Prior to the transplantation procedure, 18-week-old mice (n = 40) were orally treated by gavage with 200 µL of antibiotic cocktail composed of vancomycin (5 mg mL^-1), neomycin, metronidazole and ampicillin 155 (10 mg mL^-1) in order to deplete the bacterial content. An all-bacteria qPCR was performed with universal 16S rRNA primers that detect a broad range of bacterial species to verify complete absence of detectable bacteria in the feces.
(§2) Then, mice received a fecal microbiota transplantation from a selection of patients to recolonize the gastrointestinal tract, as previously described. Specifically, three patients with IHD, T2DM and high plasma levels of TMAO were eligible for feces donation. Fresh fecal samples were suspended in sterile phosphate buffered saline (PBS) and glycerol was added at 10 % (v/v) final concentration; then, samples were aliquoted into cryotubes and immediately stored at -80 °C. At the moment of the transplantation, aliquot samples from these patients were thawed in ice and mixed in equal quantities as a sample pool to guarantee that every mouse received a similar microbiota load. […]

TMA and TMAO = test: L-carnitine, TMA and TMAO levels in plasma (LC-MS) of humanized gnotobiotic mice; assay type: in vivo; conditions: L-carnitine (0.02%, w/v) in drinking water for 40 days; carnitine group vs control group
Procedure: as §1
as §2, with “load. The sample pool was centrifuged for 2 minutes at 2,800 xg, and the supernatant was transferred to mice by oral gavage for three consecutive days according to previously published protocols. Mice were moved to clean cages every two days to minimize the coprophagia and to prevent reinoculation from old feces.” for “load.”

[1] = test system: cardiovascular disease markers; test: Cardiovascular markers in plasma (Mouse CVD Magnetic Bead Panel 1); assay type: in vivo, mice; conditions: L-carnitine (0.02%, w/v) in drinking water for 40 days; carnitine group vs control group
Procedure: as §1, §2

gut microbiota = test: Fecal microbiota analysis by 16S rRNA gene sequencing in humanized gnotobiotic mice; assay type: in vivo
Procedure: A humanized gnotobiotic mouse model was developed through the fecal microbiota transplantation of human feces into germ-free mice. Prior to the transplantation procedure, 18-week-old mice (n = 40) were orally treated by gavage with 200 μL of antibiotic cocktail composed of vancomycin (5 mg mL^-1), neomycin, metronidazole and ampicillin 155 (10 mg mL^-1) in order to deplete the bacterial content. An all-bacteria qPCR was performed with universal 16S rRNA primers that detect a broad range of bacterial species to verify complete absence of detectable bacteria in the feces. Then, mice received a fecal microbiota transplantation from a selection of patients to recolonize the gastrointestinal tract, as previously described. Specifically, three patients with IHD, T2DM and high plasma levels of TMAO were eligible for feces donation. Fresh fecal samples were suspended in sterile phosphate buffered saline (PBS) and glycerol was added at 10 % (v/v) final concentration; then, samples were aliquoted into cryotubes and immediately stored at -80 °C. At the moment of the transplantation, aliquot samples from these patients were thawed in ice and mixed in equal quantities as a sample pool to guarantee that every mouse received a similar microbiota load. The sample pool was centrifuged for 2 minutes at 2,800 xg, and the supernatant was transferred to mice by oral gavage for three consecutive days according to previously published protocols. Mice were moved to clean cages every two days to minimize the coprophagia and to prevent reinoculation from old feces. […]

[2] = test system: protein carbonyls and pentosidine; test: Protein carbonyls (AAS, GGS) and pentosidine in plasma (fluorescent HPLC); assay type: in vivo, mice; conditions: L-carnitine (0.02%, w/v) in drinking water for 40 days; carnitine group vs control group
Procedure: as §1
as §2, with “load. The sample pool was centrifuged for 2 minutes at 2,800 xg, and the supernatant was transferred to mice by oral gavage for three consecutive days according to previously published protocols. Mice were moved to clean cages every two days to minimize the coprophagia and to prevent reinoculation from old feces.” for “load.”

SCFA species = SCFA species in feces (GC-FID) of humanized gnotobiotic mice; assay type: in vivo; conditions: L-carnitine (0.02%, w/v) in drinking water for 40 days; carnitine group vs control group
Procedure: as §1, §2

[3] = genus level, fecal samples, among control, carnitine, savory, parsley and rosemary groups, 40 days

C[N+](C)(C)C[C@H](O)CC(=O)[O-] [carnitine, L-carnitine]
no differences: relative abundance at the family and genus levels (gut microbiota; L-carnitine (0.02%, w/v) in drinking water for 40 days, carnitine group vs control group) | plasma pentosidine levels [2]
no significant effects: plasma levels of AAS [2] | plasma levels of GGS [2]
no significant differences: plasma TMAO levels (TMA and TMAO) | plasma cardiovascular disease markers (Se-selectin, sICAM-1, Precam-1, sP-selectin, PAI-1 and thrombomodulin) [1] | Chao1 index (alpha diversity) (gut microbiota; [3]) | Shannon index (alpha diversity) (gut microbiota; [3]) | fecal levels of SCFA species (acetic, butyric and propionic acids) (SCFA species)
significant increase: plasma IFNγ levels (cytokines and chemokines; carnitine group vs control group) | plasma CXCL10 levels (cytokines and chemokines; vs control group) | plasma L-carnitine levels (TMA and TMAO) | plasma TMA levels (TMA and TMAO)
